Assays:
3T3 [1] = tested on: 3T3; set-up: method as in PMID 15598357; conditions: same assay; read-out: IC50 for cytotoxicity in 3T3 Neutral Red Uptake (NRU); cited from earlier work
COX2 = target: T1, COX2 (Homo sapiens, UniProt P35354); assay: SAFETYscan COX2 enzymatic inhibition; type: biochemical; conditions: 0.1 µM to 10 µM tested
T1 construct: purchased Eurofins Discovery (San Diego, CA, USA), SAFETYscan E/IC50 SELECT service
T1 sequence (P35354 18-604): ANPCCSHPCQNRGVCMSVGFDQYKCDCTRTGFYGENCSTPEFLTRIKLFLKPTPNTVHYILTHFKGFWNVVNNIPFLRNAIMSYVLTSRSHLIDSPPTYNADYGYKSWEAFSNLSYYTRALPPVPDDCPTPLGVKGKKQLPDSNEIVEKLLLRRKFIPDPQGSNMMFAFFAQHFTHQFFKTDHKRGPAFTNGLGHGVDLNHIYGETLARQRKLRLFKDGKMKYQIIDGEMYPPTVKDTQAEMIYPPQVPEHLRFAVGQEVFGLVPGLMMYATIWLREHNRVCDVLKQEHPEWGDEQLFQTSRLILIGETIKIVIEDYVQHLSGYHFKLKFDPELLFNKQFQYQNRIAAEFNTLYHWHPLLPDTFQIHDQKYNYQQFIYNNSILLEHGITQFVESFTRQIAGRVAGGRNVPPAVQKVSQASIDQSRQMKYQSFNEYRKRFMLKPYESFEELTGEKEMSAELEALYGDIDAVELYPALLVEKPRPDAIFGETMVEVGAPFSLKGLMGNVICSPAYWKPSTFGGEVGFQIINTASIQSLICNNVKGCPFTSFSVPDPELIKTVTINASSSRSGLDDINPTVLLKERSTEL
Description: (§1) Pharmacological profiling was performed with the SAFETYscan^TM E/IC50 SELECT service provided by Eurofins Discovery (San Diego, CA, USA), based on the findings of in vitro assays used in pharmaceutical companies. Increasing concentrations of Thiamidol (0.1 µM to 10 µM) were tested against various ion channels, and a total of seventy-eight assays performed utilizing various output reads, including GPCR cAMP modulation, calcium mobilization, nuclear hormone receptor interactions, KINOMEscan binding, ion channel interactions, transporter interactions and enzymatic reactions. Methods are available online via Eurofins Discovery in the format of a sample report.

3T3 [2] = assay: 3T3 Neutral Red Uptake (NRU) cytotoxicity / phototoxicity, OECD TG 432; type: cell-based; conditions: presence of UV light
Text: (§2) From established in vitro guideline studies, potential genotoxicity and toxic effects at a cellular level can be elucidated. This can be complemented with a weight-of-evidence of any observed indicators of cytotoxicity in multiple assays. For instance, the 3T3 Neutral Red Uptake (NRU) assay, which was initially developed for phototoxicity, can provide an indication for local toxicity in the absence of UV light.
(§3) Thiamidol used for testing was sourced from Alzchem Group AG (Trostberg, Germany) with a purity of 99% w/w. For standard toxicological endpoints of skin irritation, phototoxicity and genotoxicity, in vitro studies were performed following equivalent methods to those described in the corresponding OECD Testing Guidelines: OECD Test Guideline No. 431 (In Vitro Skin Corrosion: Human Skin Model Test); OECD Test Guideline No. 439 (In Vitro Skin Irritation: Reconstructed Human Epidermis Test Method); OECD Test Guideline No. 432 (In Vitro 3T3 NRU Phototoxicity Test); OECD Test Guideline No. 471 (Bacterial Reverse Mutation Assay); OECD Test Guideline No. 487 (in vitro Mammalian Cell Micronucleus Test); and OECD Test Guideline No. 476 (in vitro Mammalian Cell Gene Mutation Test).

[3] = as above; type: cell-based; conditions: mouse, 3T3 cells; absence of UV light; Beiersdorf internal report; read-out: NR50 (IC50 for neural uptake), cytotoxicity in 3T3 NRU
Text: as §2, §3

[4] = target: T2, monoamine oxidase A (MOAO) (Homo sapiens, UniProt P21397); assay: SAFETYscan monoamine oxidase A enzymatic inhibition; type: biochemical; conditions: 0.1 µM to 10 µM tested
T2 construct: purchased Eurofins Discovery (San Diego, CA, USA), SAFETYscan E/IC50 SELECT service
T2 sequence (P21397 1-527): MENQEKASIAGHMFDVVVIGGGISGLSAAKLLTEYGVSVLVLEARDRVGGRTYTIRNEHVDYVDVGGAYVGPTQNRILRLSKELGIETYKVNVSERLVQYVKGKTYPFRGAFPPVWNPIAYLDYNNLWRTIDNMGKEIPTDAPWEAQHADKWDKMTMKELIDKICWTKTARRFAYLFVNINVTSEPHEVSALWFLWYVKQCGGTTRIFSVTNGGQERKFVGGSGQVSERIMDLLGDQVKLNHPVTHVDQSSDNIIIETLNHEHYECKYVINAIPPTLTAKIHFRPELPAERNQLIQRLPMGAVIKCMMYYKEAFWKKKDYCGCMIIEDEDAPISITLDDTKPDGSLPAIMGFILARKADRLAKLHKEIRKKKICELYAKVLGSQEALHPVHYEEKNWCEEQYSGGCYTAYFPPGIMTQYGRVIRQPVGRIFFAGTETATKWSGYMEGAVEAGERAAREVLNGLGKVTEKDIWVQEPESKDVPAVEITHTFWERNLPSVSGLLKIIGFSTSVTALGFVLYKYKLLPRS
Description: as §1

[5] = substrate depletion in human hepatocytes; type: in vitro ADME; conditions: 5 μM, 37 °C, over 240 min
Description: (§4) Metabolism in skin is evident with approx. 50% of Thiamidol degraded in a pig skin assay compared to controls after 24 h, irrespective of test sample concentration. A semiquantitative analysis of the metabolites in the porcine in vitro model is shown in Figure 2, with the primary reactions due to direct glucuronic acid conjugation (phase II metabolism) at one of the free hydroxyl groups. Further degradation products could be attributed to a combination of phase I and phase II metabolism, i.e., hydroxylation and methylation.
(§5) A biotransformation study analyzed the degradation of Thiamidol in fresh pig skin at room temperature after 24 h exposure. A solution of 0.3% and 1.0% was prepared in 2-proanol. From this, about 25 µL of test solution was placed in three vials with 2.5 g of skin, as well as controls without skin or containing skin only. All samples were mixed with 0.5 mL of water, shaken and left open. Determination of the content of the test sample was carried out in parallel. After 24 h incubation, the samples were mixed with 2 mL of acetonitrile, placed in an ultrasonic bath for 10 min (resulting in a stop to any metabolic reactions) and extracted with 50% methanol, then shaken well and placed in an ultrasonic bath and filtered. […]
The in vitro intrinsic clearances and half-life readouts were expressed as µL/min/10^6 cells and in minutes, respectively. […]

[6] = target: T3, norepinephrine transport (NET) (Homo sapiens, UniProt P23975); assay: SAFETYscan NET assay; type: biochemical; conditions: 0.1 µM to 10 µM tested
T3 construct: purchased Eurofins Discovery (San Diego, CA, USA), SAFETYscan E/IC50 SELECT service
T3 sequence (P23975 whole entry): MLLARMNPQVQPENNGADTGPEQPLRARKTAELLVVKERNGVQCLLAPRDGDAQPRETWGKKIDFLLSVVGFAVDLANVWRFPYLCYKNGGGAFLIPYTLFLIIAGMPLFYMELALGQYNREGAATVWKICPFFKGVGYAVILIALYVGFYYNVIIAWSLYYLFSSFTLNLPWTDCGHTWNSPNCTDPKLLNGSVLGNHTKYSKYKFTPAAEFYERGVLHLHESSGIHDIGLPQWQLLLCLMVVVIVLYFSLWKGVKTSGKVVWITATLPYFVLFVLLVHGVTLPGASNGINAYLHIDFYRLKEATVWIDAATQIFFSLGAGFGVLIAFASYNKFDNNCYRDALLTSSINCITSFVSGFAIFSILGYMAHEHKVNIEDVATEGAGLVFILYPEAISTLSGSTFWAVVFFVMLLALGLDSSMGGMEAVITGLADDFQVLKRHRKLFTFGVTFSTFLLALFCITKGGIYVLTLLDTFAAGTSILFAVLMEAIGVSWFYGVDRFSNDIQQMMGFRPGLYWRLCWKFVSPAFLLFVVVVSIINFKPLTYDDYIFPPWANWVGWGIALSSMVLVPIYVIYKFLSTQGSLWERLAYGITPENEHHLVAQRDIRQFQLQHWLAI
Description: as §1

COX1 = target: T4, COX1 (Homo sapiens, UniProt P23219); assay: SAFETYscan COX1 enzymatic inhibition; type: biochemical; conditions: 0.1 µM to 10 µM tested
T4 construct: purchased Eurofins Discovery (San Diego, CA, USA), SAFETYscan E/IC50 SELECT service
T4 sequence (P23219 24-599): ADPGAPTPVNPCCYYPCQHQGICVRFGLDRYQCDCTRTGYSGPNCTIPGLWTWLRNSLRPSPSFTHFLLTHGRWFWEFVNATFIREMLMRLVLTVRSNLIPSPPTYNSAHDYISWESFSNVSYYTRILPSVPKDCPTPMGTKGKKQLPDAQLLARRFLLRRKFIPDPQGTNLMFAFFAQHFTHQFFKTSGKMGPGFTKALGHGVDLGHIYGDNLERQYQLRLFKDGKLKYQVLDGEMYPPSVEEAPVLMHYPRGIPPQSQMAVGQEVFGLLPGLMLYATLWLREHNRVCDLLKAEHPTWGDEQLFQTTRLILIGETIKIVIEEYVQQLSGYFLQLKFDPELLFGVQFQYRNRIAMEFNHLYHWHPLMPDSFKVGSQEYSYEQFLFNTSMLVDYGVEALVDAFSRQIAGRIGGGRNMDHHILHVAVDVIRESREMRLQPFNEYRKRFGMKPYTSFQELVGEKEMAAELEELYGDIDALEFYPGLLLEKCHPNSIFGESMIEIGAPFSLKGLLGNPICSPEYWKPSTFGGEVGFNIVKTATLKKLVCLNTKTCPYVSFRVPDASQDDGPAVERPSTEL
Description: as §1

dopamine transport (DAT) = target: T5, dopamine transport (DAT) (Homo sapiens, UniProt Q01959); assay: SAFETYscan DAT assay; type: biochemical; conditions: 0.1 µM to 10 µM tested
T5 construct: purchased Eurofins Discovery (San Diego, CA, USA), SAFETYscan E/IC50 SELECT service
T5 sequence (Q01959 whole entry): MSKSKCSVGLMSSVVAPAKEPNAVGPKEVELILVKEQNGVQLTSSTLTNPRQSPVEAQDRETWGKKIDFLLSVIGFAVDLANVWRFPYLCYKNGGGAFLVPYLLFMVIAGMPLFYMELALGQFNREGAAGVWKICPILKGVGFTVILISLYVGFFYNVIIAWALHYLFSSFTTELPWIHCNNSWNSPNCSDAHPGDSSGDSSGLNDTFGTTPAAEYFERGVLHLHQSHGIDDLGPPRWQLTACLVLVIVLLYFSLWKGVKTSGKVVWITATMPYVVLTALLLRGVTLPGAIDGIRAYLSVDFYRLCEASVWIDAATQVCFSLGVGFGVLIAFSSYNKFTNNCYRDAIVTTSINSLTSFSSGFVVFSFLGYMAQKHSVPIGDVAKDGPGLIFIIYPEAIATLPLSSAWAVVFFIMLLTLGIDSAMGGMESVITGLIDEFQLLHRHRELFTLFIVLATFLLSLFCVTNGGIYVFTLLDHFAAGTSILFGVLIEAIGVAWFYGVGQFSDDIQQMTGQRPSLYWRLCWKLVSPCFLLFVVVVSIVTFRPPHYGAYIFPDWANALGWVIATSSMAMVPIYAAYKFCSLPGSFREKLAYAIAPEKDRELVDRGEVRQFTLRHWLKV
Description: as §1

[7] = target: recombinant human tyrosinase (hTyr); set-up: method as in PMID 29427586; conditions: read-out: half-maximal inhibitory concentration (IC50) for hTyr; cited from earlier work
[8] = biotransformation in fresh pig skin; type: in vitro ADME; conditions: after 24 h, irrespective of test sample concentration (0.3% and 1.0%)
Description: as §4
as §5, with “filtered. Metabolites were then identified using liquid chromatography coupled with mass spectroscopy.” for “filtered.”

[9] = tested on: reconstructed human epidermis; assay: in vitro skin corrosion / skin irritation, OECD TG 431 and 439 (human skin model, reconstructed human epidermis); type: cell-based; conditions: non-animal OECD methods
Text: These are amongst the first and most established non-animal methods adopted by the Organisation for Economic Co-operation and Development. Clinical skin tolerability studies for the final formulation containing Thiamidol provide confirmatory evidence but also information about consumer sensory experiences.
as §3

hyperpigmentation = conditions: cited from earlier work

In the case of Oc1ccc(O)cc1 [hydroquinone], the IC50 (3T3 [1]) is listed as 12900 nM.
For Oc1cccc(O)c1 [resorcinol, 1,3-benzenediol], the IC50 (3T3 [1]) is listed as 17300 nM.
In the case of CC(C)C(=O)Nc1nc(-c2ccc(O)cc2O)cs1 [Thiamidol, isobutylamido thiazolyl resorcinol], the IC50 (COX2) is reported as over 1000 nM, the “phototoxicity: distinction of NR50 in the presence of UV light” value (3T3 [2]) is reported as “no biologically significant distinction” and the IC50 [3] is reported as 136000 nM. The IC50 [4] was over 1000 nM, the “in vitro half-life in human hepatocytes” value [5] was “in the minute range” and the IC50 [6] was 360 nM. For the same compound, the IC50 (COX1) was over 1000 nM, the IC50 (dopamine transport (DAT)) was over 1000 nM and the IC50 [7] was 1100 nM. For the same compound, the “degraded in pig skin assay compared to controls” value [8] was “approx. 50%”, the “skin corrosion and irritation category” value [9] was “not categorized as corrosive or irritating to the skin” and the “adverse effects in clinical studies” value (hyperpigmentation; Thiamidol formulations, diverse skin- and phototypes) was “no significant adverse effects”. The “effect on hyperpigmentation in clinical studies” value (hyperpigmentation; UV-induced solar lentigines, melasma, acne- and laser-induced PIH) was “effectively reduces hyperpigmentation”.
In the case of Oc1ccccc1O [catechol], the IC50 (3T3 [1]) is given as 100 nM.
